Measured values as given in ChEMBL document CHEMBL1146167, “Structural correlation between lipophilicity and lipopolysaccharide-sequestering activity in spermine-sulfonamide analogs” (Bioorg Med Chem Lett, 2006).

Test: Binding affinity to LPS by fluorescence-based displacement assay

Row | ED50 [µM] | SMILES
1 | 884 | NCCCNCCCCNCCCNS(=O)(=O)c1ccc(C(F)(F)F)cc1
2 | 56 | NCCCNCCCCNCCCNS(=O)(=O)c1ccc(Cl)cc1Cl
3 | 9 | NCCCNCCCCNCCCNS(=O)(=O)c1ccc(Cl)c(Cl)c1Cl
4 | 3 | CCCCCCCCCCS(=O)(=O)NCCCNCCCCNCCCN
5 | 2 | CCCCCCCCCCCCCCCCS(=O)(=O)NCCCNCCCCNCCCN
6 | 19 | NCCCNCCCCNCCCNS(=O)(=O)c1cc(Cl)c(Cl)cc1Cl
7 | > 10000 | CCCCS(=O)(=O)NCCCNCCCCNCCCN
8 | 2110 | NCCCNCCCCNCCCNS(=O)(=O)c1ccc(Br)cc1Br
9 | 25 | CC(C)(C)c1ccc(S(=O)(=O)NCCCNCCCCNCCCN)cc1
10 | 3 | CCCCCCCCCCCCS(=O)(=O)NCCCNCCCCNCCCN
11 | 21 | NCCCNCCCCNCCCNS(=O)(=O)c1ccc(Cl)c(C(F)(F)F)c1
12 | 4 | CCCCOc1ccc(CC(C)(C)C)cc1S(=O)(=O)NCCCNCCCCNCCCN
13 | 158 | NCCCNCCCCNCCCNS(=O)(=O)c1ccc(Cl)cc1
14 | 34 | NCCCNCCCCNCCCNS(=O)(=O)c1cccc2ccccc12
15 | 5 | CCCCCCCCS(=O)(=O)NCCCNCCCCNCCCN
16 | 4880 | NCCCNCCCCNCCCNS(=O)(=O)c1cccc2cccnc12
17 | 1680 | CC1(C)C2CCC1(CS(=O)(=O)NCCCNCCCCNCCCN)C(=O)C2 (centres undefined)
18 | 2960 | NCCCNCCCCNCCCNS(=O)(=O)c1ccccc1
19 | 6 | CCCCCCCCCCCCCCCCCCS(=O)(=O)NCCCNCCCCNCCCN
